Source: ChEMBL document CHEMBL1139153, “Comparison of the in vitro apparent permeability and stability of opioid mimetic compounds with that of the native peptide” (Bioorg Med Chem Lett, 2007)

Test: Apparent permeability from apical to basolateral side of human Caco-2 cell membrane
Assay type: ADME, cell-based

Row | SMILES | Papp A→B [×10⁻⁶ cm/s]
1 | Cc1cc(O)cc(C)c1CC(N)C(=O)NCCCCc1nc(O)c(CCCCNC(=O)C(N)Cc2c(C)cc(O)cc2C)nc1C (centres undefined) | 0.845
2 | Cc1cc(O)cc(C)c1CC(N)C(=O)NCCCc1nc(O)c(CCCNC(=O)C(N)Cc2c(C)cc(O)cc2C)nc1C (centres undefined) | 0.547
3 | Cc1cc(O)cc(C)c1CC(N)C(=O)NCCCCNC(=O)C(N)Cc1c(C)cc(O)cc1C (centres undefined) | 0.139
4 | NC(=O)[C@H](Cc1ccccc1)NC(=O)[C@H](Cc1ccccc1)NC(=O)[C@@H]1CCCN1C(=O)[C@@H](N)Cc1ccc(O)cc1 [ENDOMORPHIN 2] | 0.0643
